One assay concerns the target T1, Recombinant human furin (Homo sapiens, UniProt P09958).
T1 construct: purchased New England BioLabs (Ipswich, MA)
Description: In vitro fluorogenic furin activity assay. It is filed as biochemical. The conditions noted are these: for inhibition of furin activity in the drug screen: fluorogenic substrate BOC-Arg-Val-Arg-Arg-AMC, FIG. 9 / FIG. 22; for fluorescence (furin activity): single drug at 110 and 220 μM, 50-minute time course. Here is the method: Recombinant human furin was purchased from New England BioLabs (Ipswich, MA). Fluorogenic furin convertase substrate BOC-Arg-Val-Arg-Arg-AMC (AMC=7-Amino-4-methylcoumarin) from Enzo Life Sciences (Farmingdale, NY) and HIV aspartyl protease inhibitors (Sigma) were dissolved in DMSO. Protease inhibitory′ drugs were prepared at a. concentration of 10 mg/mL and stored at room temperature. Furin Inhibitor II chloromethylketone was purchased from EMD Millipore (Darmstadt, Germany).
The assay was performed at pH 7.5 in buffer 50 mM HEPES, 1 mM CaCl2, 1 mM β-mercaptoethanol, 0.2 mg/mL BSA. In a total volume of 100 μL, the final concentration per well of substrate enzyme was 10 μM and 1 U/well respectively. All assays were performed at 37° C. in a 96-well fluorometer (BioTek Synergy H4 Hybrid reader) with an excitation wavelength of 345 nm and an emission wavelength of 420 nm.
Inhibitory small molecules were incubated with enzyme for 1 hour at 37° C. prior to addition of substrate to initiate the reaction. All assays were performed in triplicate. Inhibition constants were calculated based on methods previously described (Lineweaver, H. & Burk, D. The Determination of Enzyme Dissociation Constants. J. Am. Chem. Soc. 56, 658-666 (1934)). […]
The molecular docking studies predicted that PIs bind to the catalytic site of furin as well as to a putative allosteric site on furin (FIGS. 7A and 7B). A fluorescence assay was used to monitor furin activity. Furin has substrate specificity for the multi-basic consensus amino-acid sequence of Arg-X-Lys/Arg-Arg (RXRR) at the cleavage site, where X represents a neutral, polar amino acid. Peptide substrates including the furin cleavage sequence having an attached fluorescent tag were used. A fluorescence tag is quenched when it is attached to the peptide, but when furin cleaves the peptide the fluorophore is released and is able to fluoresce. The inhibitory effect of the PIs in this assay can be characterized through a positive control, in which furin actively cleaves substrate without the presence of an inhibitor.

Assay [1] relates to Female Lewis rats (PG-LPS model of ACI). The experiment in a line: PG-LPS rat model of anemia of chronic inflammation. The conditions noted are these: for serum hepcidin, lower than in PG-LPS rats / serum prohepcidin, higher than in PG-LPS rats: ELISA; for Hb (g/dL) Day 0 / Hb (g/dL) Day 62: nelfinavir with ritonavir by oral gavage. The assay is classed as in vivo. (In general: In an ELISA, binding on a coated surface is turned into a signal by an enzyme label.)

For assay [2], the system named is hepcidin-25 in Huh7 cell media. The experiment in a line: Hepcidin-25 quantification in Huh7 cell media by mass spectrometry. The assay is classed as cell-based, human. The conditions noted are these: single PI at 15 μM, IL-6 and BMP-9 10 ng/mL each, 18 hrs.
Description: Cells were seeded at a density of 1.5×10^6 per T25 flask in 5 mL culture medium and allowed to reach 50% confluency. At time 0, the cells received fresh media and were then simultaneously treated with either nelfinavir or darunavir alone, or nelfinavir and darunavir at varying concentrations (2.5/2.5 μM, 5/5 μM and 7.5/7.5 μM) and induced with IL-6 and BMP-9 (10 ng/mL each) for 18 hours. After 18 hours, 2 mL of media were collected, aliquoted and flash frozen for mass spectrometry (MS) analysis. Control groups not being induced with cytokines, are designated as ‘Healthy’.
Detection of Hepcidin-25 isoform was completed using an HPLC-MS/MS method with an Eksigent NanoLC HPLC with a Thermo Scientific C-18 reverse-phase column coupled via Thermo Scientific Nanospray ESI soft ionization source to a Thermo Scientific LTQ/Orbitrap XL mass spectrometer (MS). Samples were prepared for MS using an in-house developed enrichment and purification protocol. […]
The mass spectrometer was tuned and calibrated to a pure human recombinant hepcidin-25 solution. […] Peaks with isotopic envelopes corresponding to [M+5H+] and [M+6H+], 651.8 m/z and 543.3 m/z for 2-iodoacetamide, 818.5 m/z and 682.2 m/z for 2-iodo-N-(phenylethyl)-acetamide respectively, were detected in all samples and were not observed in the protocol blank. […] Quantification was completed using in-house developed ion chromatogram extractor software that allowed positive isolation of unfragmented peaks by m/z and chromatographic elution windows for total spectral ion count summation. Samples were intensity normalized to hepcidin-25 detected in healthy culture media for each dataset.
Sample preparation consisted of three phases: 1) ultra-filtration to remove large abundant proteins and media debris; 2) earboxamidomethylation of cysteine residues; and 3) 2-phase extraction of lipid substituents and subsequent concentration by speed-vac. […] Data was recorded at a resolution of 100,000 over the course of a two-hour method. Detected intensities were totaled using in-house developed ion-chromatogram extractor software. […]
Assay [3] has as its system HAMP gene expression in Huh7 hepatocytes. Description: HAMP gene expression (RT-qPCR), Huh7. The assay is classed as cell-based, human. The conditions noted are these: IL-6/BMP-9 induced Huh7, 18 hrs; ND 15 μM, CMK 25 μM. Background: In qPCR the cycle at which signal appears reflects the starting amount.
Description: Cells were seeded at a density of 1.5×10^6 per T25 flask in 5 mL culture medium and allowed to reach 50% confluency. At time 0, the cells received fresh media and were then simultaneously treated with either nelfinavir or darunavir alone, or nelfinavir and darunavir at varying concentrations (2.5/2.5 μM, 5/5 μM and 7.5/7.5 μM) and induced with IL-6 and BMP-9 (10 ng/mL each) for 18 hours. […] Control groups not being induced with cytokines, are designated as ‘Healthy’.
RNA was isolated by washing tissue culture in 1×PBS, before applying QIAzol lysis reagent (Cat #79306). RNA was then purified on RNeasy mini kit columns (Cat #74104) from Qiagen. All samples were treated with Qiagen DNase (Cat #79254). Two micrograms of RNA were used for reverse transcription and subsequent SYBR® Green ROX real time PCR for the genes of interest. Reverse transcription kits (Cat #330401) and SYBR Green real-time PCR master mixes (Cat #330523) were from Qiagen (Louisville, KY). […]
Real time quantitative PCR was performed on an Applied Biosciences StepOne plus instrument and analyzed with StepOne software v2.3. The relative amounts of transcripts from each gene were normalized to reference gene GAPDH and calculated as follows: ΔΔCT=the average ΔCT of sample B−the average ΔCT of sample B, and their fold difference=2−^ΔΔCT.
The next assay has as its system pSTAT3 in Huh7 cells. Description: STAT3 phosphorylation Western blot after IL-6 induction, Huh7. The note with it: for inhibition of STAT3 phosphorylation (in words): 0-60 μM, IL-6 50 ng/mL. The assay is classed as cell-based, human. The method, then:
For the STAT3 and Smad4 experiments, the cells were seeded at a density of 1.5×10^5 per flask in 5 mL of culture medium and allowed to reach 70% confluency. At time 0, the cells received fresh media and were treated with nelfinavir, ritonavir, darunavir or indinavir, at concentrations ranging from 0 to 60 μM for three hours, and then induced with IL-6 or BMP-9 (Cat, #200-06 and 120-07, PeproTech, Rocky Hill, NJ) 50 ng/mL, for 30 minutes.
After treatments, cultured cells were washed with ice-cold PBS and lysed by adding ice-cold RIP A buffer containing 50 mM Tris-HCl (pH 8), 150 mM NaCl, 1% Triton X-100, 0.5% sodium deoxycholate, 0.1% SDS, 5 mM EDTA and IX protease/phosphatase cocktail inhibitor (Thermo Fisher Scientific, Waltham, MA), Cells were scraped off the flask and were further disrupted by passing the solution through a 21 gauge needle. The extracts were then transferred to a microfuge tube and centrifuged for 20 min at 12000 rpm. Protein concentration was determined with a Lowry assay and equal amounts of the resulting protein (30 μg) were separated by 8% SDS-PAGE and then transferred to a nitrocellulose membrane (Bio-Rad).
After transfer, the membranes were blocked in Odyssey™ Blocking Buffer (927-40100, LI-COR Biosciences, Lincoln, NE) at room temperature, for 1 hour. Primary antibodies were diluted in blocking solution containing 0.2% Tween and incubated overnight at 4° C. with polyclonal antibody to ferroportin (rabbit, 1:1000 dilution; PAS-2293, Thermo Scientific, Waltham, MA), phospho-STAT3 Tyr705 and STAT3 (1:1000 dilution, (Cat. #9145 and 9139 respectively, Cell Signaling Technology, Beverly, MA). Blots were normalized by probing the membranes with either a p-actin or glucose-6-phosphate dehydrogenase polyclonal antibody (Cat. #3700 and 8866 respectively, Cell Signaling Technology, Beverly, MA). After incubation and washing with PBS-T, the membranes where incubated in the dark, in blocking solution with 0.2% Tween with IRDye 800CW Goat anti-Rabbit IgG and IRDye® 680RD Donkey anti-Mouse IgG (1:10000, LI-COR Biosciences, Lincoln, NE) for 1 hour at room temperature. The proteins were detected and visualized by fluorescence using the Odyssey Classic (LI-COR Biosciences, Lincoln, NE). Densitometry analysis of specific bands was performed with the Image Studio software.
To assess whether PIs abrogate the IL-6 signaling cascade, STATS phosphorylation (pSTAT3) was measured in the hepatocyte cell lines. PIs were incubated with both Huh7 and HepG2 cell lines for 3 hours, before the addition of IL-6 (50 ng/mL) for 30 minutes. Concentrations of PIs ranged from 0-60 μM. Following 30 minutes of IL-6 induction, cells wore immediately lysed, and proteins harvested for Western blot analysis. Untreated hepatocyte control cells are designated as healthy.
A general note: A western blot detects proteins with antibodies after separation by electrophoresis.

Setting [4] is: PG-LPS rats, listed as nelfinavir.
The mark [5] stands for this setting: Treated Control (no PG-LPS), n = 4.

The results in this text go back to patent publication US12208107B2, “Method and compositions for the treatment of anemia through the inhibition of furin” (Brigham Young University, priority 2016, dated 2025).

“Also recorded” adds a separate entry of the source.

T1 sequence (P09958 108-794): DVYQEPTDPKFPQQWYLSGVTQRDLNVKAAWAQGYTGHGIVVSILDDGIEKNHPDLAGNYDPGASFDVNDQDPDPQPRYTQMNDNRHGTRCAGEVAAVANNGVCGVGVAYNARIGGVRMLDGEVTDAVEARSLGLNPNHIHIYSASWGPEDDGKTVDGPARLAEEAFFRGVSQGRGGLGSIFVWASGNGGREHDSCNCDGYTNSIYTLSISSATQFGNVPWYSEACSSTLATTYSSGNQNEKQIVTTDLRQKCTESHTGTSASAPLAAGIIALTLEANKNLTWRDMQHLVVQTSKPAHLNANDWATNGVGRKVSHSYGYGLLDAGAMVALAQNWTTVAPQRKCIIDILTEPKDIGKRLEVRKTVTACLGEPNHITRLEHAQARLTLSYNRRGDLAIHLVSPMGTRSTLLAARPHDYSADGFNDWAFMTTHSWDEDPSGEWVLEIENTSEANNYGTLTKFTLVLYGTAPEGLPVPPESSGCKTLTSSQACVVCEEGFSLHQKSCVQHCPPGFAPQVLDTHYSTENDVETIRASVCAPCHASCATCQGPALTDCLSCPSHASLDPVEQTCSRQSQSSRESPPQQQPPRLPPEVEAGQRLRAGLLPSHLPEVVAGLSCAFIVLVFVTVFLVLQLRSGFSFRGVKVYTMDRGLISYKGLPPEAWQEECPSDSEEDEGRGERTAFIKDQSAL

Broadly, the inhibition is how much of the control response was suppressed. The low end stands for a response near the control, the high end for a response far below the control. `Cc1c(O)cccc1C(=O)N[C@@H](CSc1ccccc1)[C@H](O)CN1C[C@H]2CCCC[C@H]2C[C@H]1C(=O)NC(C)(C)C` [Nelfinavir]: on Recombinant human furin, the “type of inhibition (Lineweaver-Burk)” value is on record as “competitive inhibition”, the “inhibition of furin activity in the drug screen” value was “three best inhibitors” and the “fluorescence (furin activity)” value is given as “decreased fluorescence”. Also, in assay [1] (ICP-MS), the “iron in bone marrow, PG-LPS rats” value is reported as “increased significantly” and the “iron in serum, PG-LPS rats” value is listed as “increased significantly”. For the same compound, the “liver iron content, PG-LPS rats” value in assay [1] (PG-LPS PI treated group) is recorded as “dropped”. In assay [1] (PG-LPS rats), the “more serum iron than PG-LPS treated rats” value was roughly 25%; the “recovery of hemoglobin and hematocrit” value was “did not demonstrate a recovery”; the “serum hepcidin, lower than in PG-LPS rats” value is recorded as roughly 2 fold; the “serum prohepcidin, higher than in PG-LPS rats” value is listed as roughly 2.5 fold. Besides, in assay [1] (setting [4]), the “serum hepcidin, lower than in PG-LPS rats” value was “approximately 2 fold”; the “serum prohepcidin, higher than in PG-LPS rats” value is “approximately 2.5 fold”; the “recovery of hemoglobin and hematocrit” value is given as “did not significantly recover”. For the same compound, in assay [1] (PG-LPS rats, ritonavir co-administered), the increase of prohepcidin turned out to be 148%. In addition, the “inhibition of mature hepcidin production” value in assay [1] (PG-LPS rats, therapeutic serum concentration 4 ng/mL, ritonavir co-administered) was determined as 47%. In assay [1] (PG-LPS treated animals, qPCR), the “transcription of HAMP mRNA in liver” value is “did not show any statistically significant changes”. For the same compound, in assay [1] (setting [5]), the “Hb (g/dL) Day 0” value is given as 14.4 ± 0.4 g/dL and the “Hb (g/dL) Day 62” value came to 15.2 ± 0.2 g/dL. Further, in assay [1] (Treated Control, n = 4), the “HCT (%) Day 0” value is 41.5 ± 0.9%, the “HCT (%) Day 62” value was determined as 44.6 ± 2.7%, the “MCV (fl) Day 0” value turned out to be 55.3 ± 0.7 fL and the “MCV (fl) Day 62” value was found to be 49.7 ± 0.5 fL. In assay [1] (Treated Control, n = 4), the “RDW (%) Day 0” value worked out at 12.6 ± 0.1% and the “RDW (%) Day 62” value was 37.2 ± 0.7%. In addition, in assay [1] (Treated PG-LPS, n = 7), the “HCT (%) Day 0” value is 41.5 ± 2.4%, the “HCT (%) Day 62” value turned out to be 37.6 ± 3.9%, the “MCV (fl) Day 0” value was found to be 55.8 ± 1.5 fL and the “MCV (fl) Day 62” value is 46.7 ± 0.6 fL. Further, in assay [1] (Treated PG-LPS, n = 7), the “RDW (%) Day 0” value is 13.6 ± 2.5%, the “RDW (%) Day 62” value is recorded as 42.8 ± 1.2%, the “Hb (g/dL) Day 0” value was found to be 14.1 ± 1.1 g/dL and the “Hb (g/dL) Day 62” value came out at 13.0 ± 1.1 g/dL. In assay [1] (Western blot), the “liver ferroportin, PG-LPS rats (in words)” value is “significantly higher”. Also, the “increase in liver ferroportin, healthy rats” value in assay [1] (healthy treated rats) is recorded as roughly 3 fold. For the same compound, in assay [1] (healthy treated vs healthy), the “hepcidin levels, healthy rats” value is “slightly higher”; the “liver iron content, healthy rats” value is given as “dropped significantly”; the “prohepcidin levels, healthy rats” value was “much higher”; the “serum iron, healthy rats” value was “not significantly different”. The “increase of ferroportin expression in animal liver” value in assay [1] (ritonavir co-administered) amounted to 2.5 fold. Further, the “production of mature secreted hepcidin” value in assay [2] is reported as “back to basal levels”. In addition, the HAMP gene expression result in assay [3] is “significant inhibitory effect”. The “inhibition of STAT3 phosphorylation (in words)” value (“inhibition … (in words)” for short) in the assay with pSTAT3 in Huh7 cells is “inhibiting STAT3 phosphorylation in a dose dependent manner; also recorded: concentration dependent manner; also recorded: dose dependent inhibition”. Besides, the inhibition at 5 µM in the assay with pSTAT3 in Huh7 cells (Homo sapiens, Huh-7, 5 μM, 3 hrs before IL-6 50 ng/mL 30 min) was 27%. In the assay on pSTAT3 in Huh7 cells (Homo sapiens, Huh-7, 15 μM, 3 hrs before IL-6 50 ng/mL 30 min), this compound showed an inhibition at 15 µM of 46%.
Take `CC(C)c1nc(CN(C)C(=O)N[C@H](C(=O)N[C@@H](Cc2ccccc2)C[C@H](O)[C@H](Cc2ccccc2)NC(=O)OCc2cncs2)C(C)C)cs1` [Ritonavir]: the “inhibition … (in words)” value with pSTAT3 in Huh7 cells was “not concentration dependent”; in the assay with pSTAT3 in Huh7 cells (listed as ritonavir) it was “dose dependent inhibition”. Also, in the assay with pSTAT3 in Huh7 cells (all concentrations tested), the “inhibition of STAT3 phosphorylation” value is recorded as roughly 25%. Further, the “average pSTAT3 inhibition” value in the assay on pSTAT3 in Huh7 cells (doses 5-30 μM) is reported as 27%.
As to `CC(C)CN(C[C@@H](O)[C@H](Cc1ccccc1)NC(=O)O[C@H]1CO[C@H]2OCC[C@H]21)S(=O)(=O)c1ccc(N)cc1` [Darunavir, [(1R, 5S, 6R)-2,8-dioxabicyclo[3.3.0]oct-6-yl] N-[(2S, 3R)-4-[(4-aminophenyl)sulfonyl-(2-methylpropyl)amino]-3-hydroxy-1-phenyl-butan-2-yl] carbamate], at Recombinant human furin, the “type of inhibition (Lineweaver-Burk)” value is reported as “uncompetitive inhibition”, the “inhibition of furin activity in the drug screen” value is on record as “three best inhibitors” and the “fluorescence (furin activity)” value is on record as “decreased fluorescence”. In addition, the “production of mature secreted hepcidin” value in assay [2] is listed as “back to basal levels”. Also, the “inhibition … (in words)” value in the assay on pSTAT3 in Huh7 cells was “no signs of pSTAT3 inhibition; also recorded: did not show any statistically significant inhibition; also recorded: Neither darunavir nor indinavir inhibits STAT3 phosphorylation”.
For `CC(C)(C)NC(=O)[C@@H]1CN(Cc2cccnc2)CCN1C[C@@H](O)C[C@@H](Cc1ccccc1)C(=O)N[C@H]1c2ccccc2C[C@H]1O` [Indinavir], the “inhibition … (in words)” value with pSTAT3 in Huh7 cells was “no signs of pSTAT3 inhibition; also recorded: did not show any statistically significant inhibition; also recorded: Neither darunavir nor indinavir inhibits STAT3 phosphorylation”.
